In patent US20240158412A1 (Faxian Therapeutics, LLC, priority 2021, published 2024) one finds IC50 data, which are given here for 28 compounds.

Some results are limits rather than exact numbers.
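Also: fluorescence intensity readout of USP7 enzymatic activity, reaction incubated 90 min at room temperature.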

The target in the test is USP7 (Homo sapiens, UniProt Q93009). In words: biochemical.
Chain of USP7 (Q93009 whole entry): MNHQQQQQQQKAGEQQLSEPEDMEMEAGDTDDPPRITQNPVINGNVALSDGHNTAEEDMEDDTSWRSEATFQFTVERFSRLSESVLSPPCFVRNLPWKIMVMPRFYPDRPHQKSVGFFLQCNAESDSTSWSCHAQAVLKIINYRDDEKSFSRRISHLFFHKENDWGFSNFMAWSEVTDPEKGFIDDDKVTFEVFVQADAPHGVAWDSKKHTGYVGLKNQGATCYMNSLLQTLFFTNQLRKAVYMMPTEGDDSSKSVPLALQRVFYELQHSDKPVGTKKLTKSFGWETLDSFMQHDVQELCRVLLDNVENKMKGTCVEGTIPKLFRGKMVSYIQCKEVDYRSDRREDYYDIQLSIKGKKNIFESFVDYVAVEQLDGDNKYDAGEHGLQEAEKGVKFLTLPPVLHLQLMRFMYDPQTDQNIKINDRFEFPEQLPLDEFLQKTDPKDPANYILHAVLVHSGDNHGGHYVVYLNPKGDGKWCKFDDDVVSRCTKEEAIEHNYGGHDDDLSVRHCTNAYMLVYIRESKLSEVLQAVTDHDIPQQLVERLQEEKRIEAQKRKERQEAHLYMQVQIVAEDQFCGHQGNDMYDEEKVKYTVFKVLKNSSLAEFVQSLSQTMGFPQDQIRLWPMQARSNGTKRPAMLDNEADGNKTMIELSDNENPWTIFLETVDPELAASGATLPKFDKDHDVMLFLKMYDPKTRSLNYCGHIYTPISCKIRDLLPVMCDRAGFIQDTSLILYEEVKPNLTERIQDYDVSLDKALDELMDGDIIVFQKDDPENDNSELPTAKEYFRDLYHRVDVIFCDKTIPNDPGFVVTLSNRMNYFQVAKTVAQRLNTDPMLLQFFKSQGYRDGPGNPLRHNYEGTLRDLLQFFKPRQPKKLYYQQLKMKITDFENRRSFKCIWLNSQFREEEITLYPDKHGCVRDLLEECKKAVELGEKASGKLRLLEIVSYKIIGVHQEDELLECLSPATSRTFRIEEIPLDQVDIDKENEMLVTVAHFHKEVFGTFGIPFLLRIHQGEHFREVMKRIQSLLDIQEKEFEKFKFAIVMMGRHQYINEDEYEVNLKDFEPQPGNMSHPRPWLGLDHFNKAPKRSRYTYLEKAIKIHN
The IC50 is the midpoint of a concentration-inhibition curve. Lower therefore signals greater potency in that assay. For `O=C1CCC(=O)N1Cc1cc2nccc(-c3cc(Cl)cc4c3N(C3CNC3)CCO4)c2s1` [Example 54, 1-[[7-[4-(azetidin-3-yl)-7-chloro-2,3-dihydro-1,4-benzoxazin-5-yl]thieno[3,2-b]pyridin-2-yl]methyl]pyrrolidine-2,5-dione], the IC50 fell in the range of 10 to 100 nM. In the case of `O=C1CCC(=O)N1Cc1cc2nccc(-c3cc(Cl)cc4c3N([C@H]3CNC5(CCC5)C3)CCC4)c2s1` (single isomer, unassigned) [Example 139a] it was 10 to 100 nM.

Compound `O=c1ccn(C[C@H](O)C(F)(F)F)c(=O)n1Cc1cc2nccc(-c3cc(Cl)cc4c3N([C@H]3CCNC3)CCC4)c2s1` [Example 64] displayed an IC50 of less than 10 nM. Next, `O=c1ccn(C2CC2)c(=O)n1Cc1cc2nccc(-c3cc(C(F)(F)F)cc4c3N(C3CNC5(CCC5)C3)CCC4)c2s1` (single isomer, unassigned) [Example 162a]: less than 10 nM; `O=C1CCC(=O)N1Cc1cc2nccc(-c3cc(Cl)cc4c3N(C3CCNC3)C[C@@H]3C[C@H]43)c2s1` (single isomer, unassigned) [Example 113c]: 10 to 100 nM; `CC(C)(C)c1cnn(Cc2cc3nccc(-c4cc(C#N)cc5c4N([C@@H]4CN[C@@](C)(CO)C4)C(=O)CO5)c3s2)c(=O)c1` [Example 225, 5-(2-((4-(tert-butyl)-6-oxopyridazin-1(6H)-yl)methyl)thieno[3,2-b]pyridin-7-yl)-4-((3S,5R)-5-(hydroxymethyl)-5-methylpyrrolidin-3-yl)-3-oxo-3,4-dihydro-2H-benzo[b][1,4]oxazine-7-carbonitrile]: less than 10 nM.

Take `O=C1CCC(=O)N1Cc1cc2nccc(-c3cc(Cl)cc4c3N(C3CNC3)CCC43CC3)c2s1` [Example 48, 1-((7-(1′-(azetidin-3-yl)-6′-chloro-2′,3′-dihydro-1′H-spiro[cyclopropane-1,4′-quinolin]-8′-yl)thieno[3,2-b]pyridin-2-yl)methyl)pyrrolidine-2,5-dione]: the IC50 is 10 to 100 nM. `Cc1cnn(Cc2cc3nccc(-c4cc(C#N)cc5c4N(C4CNC(C)(C)C4)CCC5)c3s2)c(=O)c1` (single isomer, unassigned) [Example 120b]: the IC50 lay in the range of 101 to 1000 nM. As to `CC1(C)C[C@H](N2CCCc3cc(C#N)cc(-c4ccnc5cc(Cn6c(=O)ccn(CC(F)(F)F)c6=O)sc45)c32)CN1` [Example 125, (S)-1-(5,5-dimethylpyrrolidin-3-yl)-8-(2-((2,6-dioxo-3-(2,2,2-trifluoroethyl)-2,3-dihydropyrimidin-1(6H)-yl)methyl)thieno[3,2-b]pyridin-7-yl)-1,2,3,4-tetrahydroquinoline-6-carbonitrile], the IC50 is less than 10 nM. `O=C1CCC(=O)N1Cc1cc2nccc(-c3cc(Cl)cc4c3N([C@@H]3CN(CCO)C5(CCC5)C3)CCC4)c2s1` [Example 141, (S)-1-((7-(6-chloro-1-(5-(2-hydroxyethyl)-5-azaspiro[3.4]octan-7-yl)-1,2,3,4-tetrahydroquinolin-8-yl)thieno[3,2-b]pyridin-2-yl)methyl)pyrrolidine-2,5-dione]: the IC50 is less than 10 nM. In the case of `N#Cc1cc(-c2ccnc3cc(Cn4c(=O)ccn(CC(F)F)c4=O)sc23)c2c(c1)[C@@H]1C[C@@H]1CN2[C@@H]1CCNC1` [Example 117b, (1aS,7bR)-4-(2-((3-(2,2-difluoroethyl)-2,6-dioxo-2,3-dihydropyrimidin-1(6H)-yl)methyl)thieno[3,2-b]pyridin-7-yl)-3-((R)-pyrrolidin-3-yl)-1a,2,3,7b-tetrahydro-1H-cyclopropa[c]quinoline-6-carbonitrile] it was 10 to 100 nM; in that of `O=C1CCC(=O)N1Cc1cc2nccc(-c3cc(C(F)(F)F)cc4c3N(C3CNC5(CCC5)C3)CCO4)c2s1` (single isomer, unassigned) [Example 175b], less than 10 nM. In the case of `NC(=O)c1cc(-c2ccnc3cc(Cn4c(=O)ccn(CC(F)(F)F)c4=O)sc23)c2c(c1)[C@@H]1C[C@@H]1CN2[C@@H]1CNC2(CCC2)C1` [Example 170, (1aS,7bR)-4-(2-((2,6-dioxo-3-(2,2,2-trifluoroethyl)-3,6-dihydropyrimidin-1(2H)-yl)methyl)thieno[3,2-b]pyridin-7-yl)-3-((S)-5-azaspiro[3.4]octan-7-yl)-1a,2,3,7b-tetrahydro-1H-cyclopropa[c]quinoline-6-carboxamide] it was less than 10 nM; in that of `O=C1OC[C@@H](C(F)(F)F)N1Cc1cc2nccc(-c3cc(Cl)cc4c3N([C@@H]3CNC5(CCC5)C3)CCC4)c2s1` [Example 157, (S)-3-((7-(6-chloro-1-((S)-5-azaspiro[3.4]octan-7-yl)-1,2,3,4-tetrahydroquinolin-8-yl)thieno[3,2-b]pyridin-2-yl)methyl)-4-(trifluoromethyl)oxazolidin-2-one], 10 to 100 nM. Next, `O=C1CCC(=O)N1Cc1cc2nccc(-c3cc(Cl)cc4c3N(C3CCNCC3)CCC4)c2s1` [Example 45, 1-((7-(6-chloro-1-(piperidin-4-yl)-1,2,3,4-tetrahydroquinolin-8-yl)thieno[3,2-b]pyridin-2-yl)methyl)pyrrolidine-2,5-dione]: 10 to 100 nM. In the case of `Cn1ccc(=O)n(Cc2cc3nccc(-c4cc(C#N)cc5c4N([C@H]4CCNC4)CCC5)c3s2)c1=O` [Example 87, (S)-8-(2-((3-methyl-2,6-dioxo-2,3-dihydropyrimidin-1(6H)-yl)methyl)thieno[3,2-b]pyridin-7-yl)-1-(pyrrolidin-3-yl)-1,2,3,4-tetrahydroquinoline-6-carbonitrile], the IC50 is less than 10 nM. The compound `O=C1C2CC2C(=O)N1Cc1cc2nccc(-c3cc(Cl)cc4c3N([C@@H]3CN[C@@H](CO)C3)CCO4)c2s1` (stereo partly drawn) [Example 214, 3-((7-(7-chloro-4-((3S,5R)-5-(hydroxymethyl)pyrrolidin-3-yl)-3,4-dihydro-2H-benzo[b][1,4]oxazin-5-yl)thieno[3,2-b]pyridin-2-yl)methyl)-3-azabicyclo[3.1.0]hexane-2,4-dione] displayed an IC50 of less than 10 nM.

`O=C1CCC(=O)N1Cc1cc2nccc(-c3cc(Cl)cc4c3N([C@@H]3CNC5(CCC5)C3)C[C@@H]3C[C@H]43)c2s1` [Example 165a, 1-((7-((1aR,7bS)-6-chloro-3-((S)-5-azaspiro[3.4]octan-7-yl)-1a,2,3,7b-tetrahydro-1H-cyclopropa[c]quinolin-4-yl)thieno[3,2-b]pyridin-2-yl)methyl)pyrrolidine-2,5-dione]: the IC50 was 10 to 100 nM.

Take `N#Cc1cc(-c2ccnc3cc(Cn4c(=O)ccn(CC(F)(F)F)c4=O)sc23)c2c(c1)[C@@H]1C[C@@H]1CN2[C@@H]1CNC2(CCC2)C1` [Example 169, (1aS,7bR)-4-(2-((2,6-dioxo-3-(2,2,2-trifluoroethyl)-3,6-dihydropyrimidin-1(2H)-yl)methyl)thieno[3,2-b]pyridin-7-yl)-3-((S)-5-azaspiro[3.4]octan-7-yl)-1a,2,3,7b-tetrahydro-1H-cyclopropa[c]quinoline-6-carbonitrile]: the IC50 is less than 10 nM. The compound `COC(=O)[C@]1(C)C[C@H](N2CCCc3cc(Cl)cc(-c4ccnc5cc(CN6C(=O)CCC6=O)sc45)c32)CN1` (single isomer, unassigned) [Example 204] showed an IC50 of 101 to 1000 nM.

In turn, `CC1(CN2CC(=O)N(Cc3cc4nccc(-c5cc(Cl)cc6c5N(C5CNC5)CCC6)c4s3)C(=O)C2)CC1` [Example 29, 1-((7-(1-(azetidin-3-yl)-6-chloro-1,2,3,4-tetrahydroquinolin-8-yl)thieno[3,2-b]pyridin-2-yl)methyl)-4-((1-methylcyclopropyl)methyl)piperazine-2,6-dione] came in with an IC50 of 10 to 100 nM. Next, `O=C1CCC(=O)N1Cc1cc2nccc(-c3cc(Cl)cc4c3N([C@H]3CCCNCC3)CCC4)c2s1` (single isomer, unassigned) [Example 47a]: less than 10 nM. In the case of `O=C1CCC(=O)N1Cc1cc2nccc(-c3cc(Cl)cc4c3N(C3CN(C5COC5)C3)CCC4)c2s1` [Example 6, 1-((7-(6-chloro-1-(1-(oxetan-3-yl)azetidin-3-yl)-1,2,3,4-tetrahydroquinolin-8-yl)thieno[3,2-b]pyridin-2-yl)methyl)pyrrolidine-2,5-dione] it was 10 to 100 nM; in that of `N#Cc1cc2c(c(-c3ccnc4cc(Cn5c(=O)ccn(CC(F)(F)F)c5=O)sc34)c1)N([C@H]1CCNC1)CCC2` [Example 83, (S)-8-(2-((2,6-dioxo-3-(2,2,2-trifluoroethyl)-2,3-dihydropyrimidin-1(6H)-yl)methyl)thieno[3,2-b]pyridin-7-yl)-1-(pyrrolidin-3-yl)-1,2,3,4-tetrahydroquinoline-6-carbonitrile], less than 10 nM. Next, `CNC(=O)N1CC(N2CCCc3cc(Cl)cc(-c4ccnc5cc(CN6C(=O)CCC6=O)sc45)c32)C1` [Example 7, 3-[6-chloro-8-[2-[(2,5-dioxopyrrolidin-1-yl)methyl]thieno[3,2-b]pyridin-7-yl]-3,4-dihydro-2H-quinolin-1-yl]-N-methyl-azetidine-1-carboxamide]: 101 to 1000 nM.

Compound `N[C@H]1C[C@@H](N2CCCc3cc(Cl)cc(-c4ccnc5cc(CN6C(=O)CCC6=O)sc45)c32)C1` (single isomer, unassigned) [Example 42a, cis-1-((7-(1-(3-aminocyclobutyl)-6-chloro-1,2,3,4-tetrahydroquinolin-8-yl)thieno[3,2-b]pyridin-2-yl)methyl)pyrrolidine-2,5-dione] registered an IC50 of less than 10 nM. On to `O=c1ccn(C2CC2)c(=O)n1Cc1cc2nccc(-c3cc(Cl)cc4c3N([C@H]3CCNC3)CCC4)c2s1` [Example 72, (S)-3-((7-(6-chloro-1-(pyrrolidin-3-yl)-1,2,3,4-tetrahydroquinolin-8-yl)thieno[3,2-b]pyridin-2-yl)methyl)-1-cyclopropylpyrimidine-2,4(1H,3H)-dione], for which the IC50 was less than 10 nM. In the case of `N#Cc1cc2c(c(-c3ccnc4cc(CN5C(=O)C6CC6C5=O)sc34)c1)N([C@H]1CNC3(CCCC3)C1)CCC2` (stereo partly drawn) [Example 178a, 8-(2-((2,4-dioxo-3-azabicyclo[3.1.0]hexan-3-yl)methyl)thieno[3,2-b]pyridin-7-yl)-1-((R)-1-azaspiro[4.4]nonan-3-yl)-1,2,3,4-tetrahydroquinoline-6-carbonitrile] it was 101 to 1000 nM.
